Measured values taken from PubChem BioAssay AID248 (DTP/NCI, 2004).
“And” between values parts separate entries of the source, which are not always exact repeats. Equal values may be shown once. Toxic doses and inconclusive results are not listed.

Tested on: L1210 leukemia ip in BDF1 mice, survival T/C
Test: NCI In Vivo Anticancer Drug Screen. Data for tumor model L1210 Leukemia (intraperitoneal) in B6D2F1 (BDF1) mice
Conditions: endpoint: mean survival time, higher = longer survival
Summary of the method: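 Read-out is survival time, reported as the treated-group measurement over the vehicle-control measurement.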

[1] = dose: 25.0 mg/kg/injection, schedule: Q04DX002 (ip), vehicle: Klucel (hydroxypropylcellulose) (HPC)
[2] = dose: 50.0 mg/kg/injection, schedule: Q04DX002 (ip), vehicle: Klucel (hydroxypropylcellulose) (HPC)
[3] = dose: 100.0 mg/kg/injection, schedule: Q04DX002 (ip), vehicle: Klucel (hydroxypropylcellulose) (HPC)
[4] = dose: 100.0 mg/kg/injection, schedule: Q01DX001 (ip), vehicle: carboxymethylcellulose (CMC)
[5] = dose: 200.0 mg/kg/injection, schedule: Q01DX001 (ip), vehicle: carboxymethylcellulose (CMC)
[6] = dose: 400.0 mg/kg/injection, schedule: Q01DX001 (ip), vehicle: carboxymethylcellulose (CMC)
[7] = dose: 100.0 mg/kg/injection, schedule: Q01DX009 (ip), vehicle: Klucel (hydroxypropylcellulose) (HPC)
[8] = dose: 100.0 mg/kg/injection, schedule: Q04DX003 (ip), vehicle: Klucel (hydroxypropylcellulose) (HPC)
[9] = dose: 200.0 mg/kg/injection, schedule: Q01DX009 (ip), vehicle: Klucel (hydroxypropylcellulose) (HPC)
[10] = dose: 200.0 mg/kg/injection, schedule: Q04DX003 (ip), vehicle: Klucel (hydroxypropylcellulose) (HPC)
[11] = dose: 400.0 mg/kg/injection, schedule: Q04DX003 (ip), vehicle: Klucel (hydroxypropylcellulose) (HPC)
[12] = dose: 100.0 mg/kg/injection, schedule: Q01DX001 (ip), vehicle: saline with Tween-80
[13] = dose: 200.0 mg/kg/injection, schedule: Q01DX001 (ip), vehicle: saline with Tween-80
[14] = dose: 400.0 mg/kg/injection, schedule: Q01DX001 (ip), vehicle: saline with Tween-80
[15] = dose: 200.0 mg/kg/injection, schedule: Q04DX002 (ip), vehicle: Klucel (hydroxypropylcellulose) (HPC)
[16] = dose: 400.0 mg/kg/injection, schedule: Q04DX002 (ip), vehicle: Klucel (hydroxypropylcellulose) (HPC)
[17] = dose: 100.0 mg/kg/injection, schedule: Q01DX009 (ip), vehicle: saline
[18] = dose: 200.0 mg/kg/injection, schedule: Q01DX009 (ip), vehicle: saline
[19] = dose: 400.0 mg/kg/injection, schedule: Q01DX009 (ip), vehicle: saline

With `Nn1cnc2c(=S)nc[nH]c21` the T/C (dose: 42.0 mg/kg/injection, schedule: Q01DX015 (ip), vehicle: other) was 101 % of control, the T/C (dose: 72.0 mg/kg/injection, schedule: Q01DX015 (ip), vehicle: other) was 101 % of control and the T/C (dose: 100.0 mg/kg/injection, schedule: Q01DX001 (ip), vehicle: other) was 102 % of control. The T/C (dose: 177.0 mg/kg/injection, schedule: Q01DX001 (ip), vehicle: other) was 97 % of control, the T/C (dose: 177.0 mg/kg/injection, schedule: Q01DX001 (ip), vehicle: saline) was 102 % of control and the T/C (dose: 200.0 mg/kg/injection, schedule: Q01DX001 (ip), vehicle: other) was 102 % of control. For the same molecule, the T/C (dose: 200.0 mg/kg/injection, schedule: Q01DX015 (ip), vehicle: other) was 86 % of control, the T/C (dose: 266.0 mg/kg/injection, schedule: Q01DX001 (ip), vehicle: other) was 115 % of control and the T/C (dose: 266.0 mg/kg/injection, schedule: Q01DX001 (ip), vehicle: saline) was 101 % of control. For the same molecule, the T/C (dose: 400.0 mg/kg/injection, schedule: Q01DX001 (ip), vehicle: other) was 154 % of control and 164 % of control, the T/C (dose: 400.0 mg/kg/injection, schedule: Q01DX001 (ip), vehicle: saline) was 104 % of control and the T/C (dose: 600.0 mg/kg/injection, schedule: Q01DX001 (ip), vehicle: saline) was 167 % of control.

With `CCCCN(CCCC)S(=O)(=O)O` the T/C [1] was 101 % of control, the T/C [2] was 108 % of control and the T/C [3] was 115 % of control.

For `CN(C)c1nc2ccccc2o1`, the T/C [4] was 94 % of control, the T/C [5] was 102 % of control and the T/C [6] was 105 % of control.

With `CC(=O)OCC1OC(=O)C(C)N(C)C(=O)CN(C)C(=O)C2C(=O)CC(C)N2C(=O)C(C(C)C)NC(=O)C1NC(=O)c1c2nc3c(C(=O)NC4C(=O)NC(C(C)C)C(=O)N5C(C)CC(OC(C)=O)C5C(=O)N(C)CC(=O)N(C)C(C(C)C)C(=O)OC4C)ccc(C)c3oc-2c(C)c(=O)c1N` (configuration not stated) the T/C (dose: 0.05 mg/kg/injection, schedule: Q01DX009 (ip), vehicle: saline with Tween-80) was 94 % of control, the T/C (dose: 0.1 mg/kg/injection, schedule: Q01DX009 (ip), vehicle: saline with Tween-80) was 102 % of control and the T/C (dose: 0.15 mg/kg/injection, schedule: Q04DX003 (ip), vehicle: saline with Tween-80) was 95 % of control. The T/C (dose: 0.2 mg/kg/injection, schedule: Q01DX009 (ip), vehicle: saline with Tween-80) was 112 % of control, the T/C (dose: 0.3 mg/kg/injection, schedule: Q04DX003 (ip), vehicle: saline with Tween-80) was 100 % of control and the T/C (dose: 0.4 mg/kg/injection, schedule: Q01DX001 (ip), vehicle: saline with Tween-80) was 102 % of control. The T/C (dose: 0.4 mg/kg/injection, schedule: Q01DX009 (ip), vehicle: saline with Tween-80) was 118 % of control, the T/C (dose: 0.6 mg/kg/injection, schedule: Q04DX003 (ip), vehicle: saline with Tween-80) was 111 % of control and the T/C (dose: 0.8 mg/kg/injection, schedule: Q01DX001 (ip), vehicle: saline with Tween-80) was 118 % of control. For the same molecule, the T/C (dose: 1.2 mg/kg/injection, schedule: Q04DX003 (ip), vehicle: saline with Tween-80) was 118 % of control, the T/C (dose: 1.6 mg/kg/injection, schedule: Q01DX001 (ip), vehicle: saline with Tween-80) was 112 % of control and the T/C (dose: 2.4 mg/kg/injection, schedule: Q04DX003 (ip), vehicle: saline with Tween-80) was 119 % of control. For the same molecule, the T/C (dose: 3.2 mg/kg/injection, schedule: Q01DX001 (ip), vehicle: saline with Tween-80) was 119 % of control and the T/C (dose: 6.4 mg/kg/injection, schedule: Q01DX001 (ip), vehicle: saline with Tween-80) was 102 % of control.

With `c1ccc2[nH]c(/N=N/c3nc4ccccc4[nH]3)nc2c1` the T/C [7] was 95 % of control, the T/C [8] was 94 % of control and the T/C [9] was 105 % of control. For the same molecule, the T/C [10] was 98 % of control, the T/C (dose: 400.0 mg/kg/injection, schedule: Q01DX009 (ip), vehicle: Klucel (hydroxypropylcellulose) (HPC)) was 87 % of control and the T/C [11] was 98 % of control.

For `NC(=S)N/N=C/c1cccn1-c1ccc2ncccc2c1[N+](=O)[O-]`, the T/C [1] was 93 % of control, the T/C [2] was 93 % of control and the T/C [3] was 90 % of control.

For `CC12CC=C3c4ccc(S)cc4CCC3C1CCC2=O` (configuration not stated), the T/C [12] was 96 % of control, the T/C [13] was 89 % of control and the T/C [14] was 89 % of control.

With `O=[N+]([O-])c1ccc(/C=N/Nc2nnc(N/N=C/c3ccc([N+](=O)[O-])cc3)c3ccccc23)cc1` the T/C (dose: 50.0 mg/kg/injection, schedule: Q01DX001 (ip), vehicle: carboxymethylcellulose (CMC)) was 93 % of control, the T/C [4] was 101 % of control and the T/C [5] was 93 % of control. The T/C [6] was 98 % of control.

`COC1OC(COS(=O)(=O)c2ccc(C)cc2)C(OC(=O)c2ccccc2)C(OC(=O)c2ccccc2)C1OS(=O)(=O)c1ccc(C)cc1` (configuration not stated) was tested, and the T/C [1] was 88 % of control, the T/C [2] was 95 % of control and the T/C [3] was 88 % of control. The T/C [15] was 109 % of control and 88 % of control and the T/C [16] was 109 % of control.

In the case of `CC(=O)OC1CCC2(C)C(=CCC3C2CCC2(C)C3CC3C(c4ccccc4Cl)=NN(c4ccccc4)C32C#N)C1` (configuration not stated), the T/C [3] is reported as 95 % of control, the T/C [15] is reported as 95 % of control and the T/C [16] is reported as 95 % of control.

In the case of `CN(C)CCCN=Cc1[nH]c(=S)[nH]c(=O)c1Cc1ccc(Cl)cc1`, the T/C [12] is reported as 102 % of control, the T/C [13] is reported as 111 % of control and the T/C [14] is reported as 101 % of control.

With `O=S(=O)(Nc1ccc2ccccc2c1)c1cccc2ccccc12` the T/C [8] was 101 % of control, the T/C [10] was 93 % of control and the T/C [11] was 101 % of control.

For `CC(C)(CNc1ccc(C(=O)O)cc1)[N+](=O)[O-]`, the T/C [17] was 93 % of control, the T/C (dose: 100.0 mg/kg/injection, schedule: Q04DX003 (ip), vehicle: saline) was 95 % of control and the T/C [18] was 90 % of control. For the same molecule, the T/C (dose: 200.0 mg/kg/injection, schedule: Q04DX003 (ip), vehicle: saline) was 98 % of control, the T/C [19] was 87 % of control and the T/C (dose: 400.0 mg/kg/injection, schedule: Q04DX003 (ip), vehicle: saline) was 90 % of control.

For `CCOCCOCCCNCc1cnc2nc(N)nc(N)c2n1`, the T/C (dose: 10.0 mg/kg/injection, schedule: Q01DX009 (ip), vehicle: saline) was 97 % of control, the T/C (dose: 20.0 mg/kg/injection, schedule: Q01DX009 (ip), vehicle: saline) was 103 % of control and the T/C (dose: 40.0 mg/kg/injection, schedule: Q01DX009 (ip), vehicle: saline) was 103 % of control.

In the case of `Cc1cc(C)c(NC(=O)NCCCl)cc1C`, the T/C [8] is reported as 104 % of control, the T/C [10] is reported as 89 % of control and the T/C [11] is reported as 93 % of control.

In the case of `CC(=O)/C=C/c1ccccc1`, the T/C (dose: 100.0 mg/kg/injection, schedule: Q01DX001 (ip), vehicle: gum acacia) is reported as 91 % of control, the T/C (dose: 200.0 mg/kg/injection, schedule: Q01DX001 (ip), vehicle: gum acacia) is reported as 105 % of control and the T/C (dose: 400.0 mg/kg/injection, schedule: Q01DX001 (ip), vehicle: gum acacia) is reported as 97 % of control.

In the case of `CCC(=O)ONO`, the T/C (dose: 50.0 mg/kg/injection, schedule: Q01DX009 (ip), vehicle: saline) is reported as 94 % of control, the T/C [17] is reported as 102 % of control and the T/C [18] is reported as 94 % of control.

In the case of `ClCc1nc(-c2ccco2)no1`, the T/C [7] is reported as 95 % of control.

For `N#Cc1c(Oc2ccccc2)c(F)c(Oc2ccccc2)c(F)c1Oc1ccccc1`, the T/C (dose: 100.0 mg/kg/injection, schedule: Q01DX009 (ip), vehicle: saline with Tween-80) was 100 % of control, the T/C (dose: 200.0 mg/kg/injection, schedule: Q01DX009 (ip), vehicle: saline with Tween-80) was 91 % of control and the T/C (dose: 400.0 mg/kg/injection, schedule: Q01DX009 (ip), vehicle: saline with Tween-80) was 92 % of control.

For `CCC(=O)C1(c2cccc(O)c2)CCN(C)CC1`, the T/C (dose: 75.0 mg/kg/injection, schedule: Q01DX001 (ip), vehicle: saline) was 94 % of control and the T/C (dose: 150.0 mg/kg/injection, schedule: Q01DX001 (ip), vehicle: saline) was 97 % of control.

`CCOC(=O)C1CCC(=O)N1` (configuration not stated) was tested, and the T/C [8] was 96 % of control, the T/C [10] was 98 % of control and the T/C [11] was 98 % of control.

In the case of `COc1ccc(CNC(=O)NCCCl)cc1OC`, the T/C [7] is reported as 102 % of control, the T/C [8] is reported as 115 % of control and the T/C [9] is reported as 103 % of control. The T/C [10] was 113 % of control and the T/C [11] was 101 % of control.

`CCO[Si](CC)(CC)CC` was tested, and the T/C [17] was 100 % of control, the T/C [18] was 98 % of control and the T/C [19] was 102 % of control.
